Earlier results as cited in patent US7358226B2, “Ultrasonic concentration of drug delivery capsules” (The Regents of the University of California, priority 2003, dated 2008).
Each block holds one molecule with its values, some of them ahead of it.

Key:
P-gp = biological target: T1, P-gp (Mus musculus, UniProt P21447)
T1 construct: host or cells: mouse brain in vivo (endogenous protein)

P-glycoprotein = biological target: T2, P-glycoprotein (Mus musculus, UniProt P21447)
T2 construct: host or cells: mouse brain in vivo (endogenous protein)
T2 sequence (P21447 whole entry): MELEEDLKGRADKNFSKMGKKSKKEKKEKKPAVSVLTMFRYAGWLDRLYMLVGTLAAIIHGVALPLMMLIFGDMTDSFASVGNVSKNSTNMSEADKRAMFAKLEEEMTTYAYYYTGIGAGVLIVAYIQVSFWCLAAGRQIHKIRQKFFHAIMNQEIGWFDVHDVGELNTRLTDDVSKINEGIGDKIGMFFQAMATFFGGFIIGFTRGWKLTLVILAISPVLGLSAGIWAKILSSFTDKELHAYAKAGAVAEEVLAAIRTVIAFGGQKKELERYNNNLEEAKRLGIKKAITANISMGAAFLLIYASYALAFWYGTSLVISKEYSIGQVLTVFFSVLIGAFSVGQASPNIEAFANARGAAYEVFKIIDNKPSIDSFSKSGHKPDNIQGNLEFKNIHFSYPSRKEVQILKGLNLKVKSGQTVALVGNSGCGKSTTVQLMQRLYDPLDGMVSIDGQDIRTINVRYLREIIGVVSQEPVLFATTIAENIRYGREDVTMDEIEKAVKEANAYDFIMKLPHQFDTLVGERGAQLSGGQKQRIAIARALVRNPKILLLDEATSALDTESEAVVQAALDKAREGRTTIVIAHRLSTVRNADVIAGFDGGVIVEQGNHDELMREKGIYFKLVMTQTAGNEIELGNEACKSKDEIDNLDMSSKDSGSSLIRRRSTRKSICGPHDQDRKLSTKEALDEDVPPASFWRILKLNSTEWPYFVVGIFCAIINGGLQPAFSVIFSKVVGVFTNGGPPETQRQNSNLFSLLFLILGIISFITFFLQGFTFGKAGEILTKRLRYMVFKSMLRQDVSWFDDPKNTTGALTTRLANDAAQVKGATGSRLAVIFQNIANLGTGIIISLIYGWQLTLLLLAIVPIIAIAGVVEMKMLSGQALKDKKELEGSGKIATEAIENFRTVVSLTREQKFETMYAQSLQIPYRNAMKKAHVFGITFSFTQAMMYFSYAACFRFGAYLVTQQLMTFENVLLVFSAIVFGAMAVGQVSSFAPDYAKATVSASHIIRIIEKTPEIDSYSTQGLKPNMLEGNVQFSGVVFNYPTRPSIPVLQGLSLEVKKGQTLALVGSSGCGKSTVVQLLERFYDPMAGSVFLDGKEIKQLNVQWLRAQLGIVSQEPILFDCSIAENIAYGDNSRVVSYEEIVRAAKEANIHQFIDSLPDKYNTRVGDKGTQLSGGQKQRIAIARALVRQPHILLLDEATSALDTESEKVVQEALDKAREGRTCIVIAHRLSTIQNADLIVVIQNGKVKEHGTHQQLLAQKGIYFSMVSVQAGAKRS

tumor = details: paclitaxel alone

T1 sequence (P21447 whole entry): as above

Structure (SMILES): CC(=O)O[C@H]1C(=O)[C@@]2(C)[C@H]([C@H](OC(=O)c3ccccc3)[C@]3(O)C[C@H](OC(=O)[C@H](O)[C@@H](NC(=O)c4ccc([18F])cc4)c4ccccc4)C(C)=C1C3(C)C)[C@]1(OC(C)=O)CO[C@@H]1C[C@@H]2O [F18-fluoropaclitaxel]
- increase of F18-fluoropaclitaxel uptake in the brain (P-gp; P-gp knockout mice relative to wildtype controls): 1400%
- clearance (P-gp; mouse, in vivo): rapid clearance
- tissue uptake (P-gp; mouse, in vivo): high uptake in many tissues

- brain concentrations of paclitaxel (P-glycoprotein; Valspodar co-administered with paclitaxel): significantly increase
Structure (SMILES): C/C=C/C[C@@H](C)C(=O)[C@H]1C(=O)N[C@@H](C(C)C)C(=O)N(C)CC(=O)N(C)[C@@H](CC(C)C)C(=O)N[C@@H](C(C)C)C(=O)N(C)[C@@H](CC(C)C)C(=O)N[C@@H](C)C(=O)N[C@H](C)C(=O)N(C)[C@@H](CC(C)C)C(=O)N(C)[C@@H](CC(C)C)C(=O)N(C)[C@@H](C(C)C)C(=O)N1C [Valspodar]

- increase of uptake of F18-fluoropaclitaxel (P-gp; preadministration of XR9576, increase was not significant): 20%
Structure (SMILES): COc1cc2c(cc1OC)CN(CCc1ccc(NC(=O)c3cc(OC)c(OC)cc3NC(=O)c3cnc4ccccc4c3)cc1)CC2 [XR9576]

- penetration of paclitaxel into the brain (P-glycoprotein; P-glycoprotein knockout mice): markedly increased
Structure (SMILES): CC(=O)O[C@H]1C(=O)[C@@]2(C)[C@H]([C@H](OC(=O)c3ccccc3)[C@]3(O)C[C@H](OC(=O)[C@H](O)[C@@H](NC(=O)c4ccccc4)c4ccccc4)C(C)=C1C3(C)C)[C@]1(OC(C)=O)CO[C@@H]1C[C@@H]2O [paclitaxel, Paclitaxel]
- effect on tumor volume (tumor): did not affect tumor volume
